Experimental data as given in US20070066636A1, “POLYMORPHS OF TARTRATE SALT OF 2-[2-(3-(R)-AMINO-PIPERIDIN-1-YL)-5-FLUORO-6-OXO-6H-PYRIMIDIN-1-YLMETHYL]-BENZONITRILE AND METHODS OF USE THEREFOR” (priority 2005, published 2007).
Structures can show the parent of a compound that is named as a salt. Each block holds one compound with its values, some of them ahead of it.

Legend:
Assay type in all cases: physicochemical
[1] = Solubility estimates in different solvents; settings: thermodynamic from solid, ambient temperature, visual estimate
Description: A weighed sample (typically about 20 mg) of Compound I form A was treated with aliquots of the test solvent at ambient temperature. The aliquot volumes were typically 250 μL. Periodically, the mixture was sonicated between additions to facilitate dissolution. Complete dissolution of the test material was determined by visual inspection. Solubilities were estimated from these experiments based on the total solvent used to provide complete dissolution. […] If dissolution occurred after the last aliquot was added then solubility is expressed as “greater than or equal to” (≧). The solubility values for Compound I (Table 4) have been rounded to the nearest whole number. The true equilibrium solubilities for the compound may be different than the values provided here because of the use of solvent aliquots that were too large or due to a slow rate of dissolution.

[2] = Moisture sorption/desorption analysis; settings: for solid form of post moisture sorption/desorption sample by XRPD: after 5%-95%-5% RH cycle; for molecules of water present for every molecule of compound: at 95% RH, calculated from desorption weight change and molecular weight; for Weight Change: 25 C
Description: Moisture sorption/desorption data were collected on a VTI SGA-100 Vapor Sorption Analyzer. Sorption and desorption data were collected over a range of 5% to 95% relative humidity (RH) at 10% RH intervals under a nitrogen purge. Sodium chloride (NaCl) and polyvinylpyrrolidone (PVP) were used as the calibration standards. Equilibrium criteria used for analysis were less than 0.0100% weight change in 5 minutes, with a maximum equilibration time of 180 minutes if the weight criterion was not met. The plotted data that contain the percent weight change values at various RH intervals are relative to the initial weight of the sample. The plotted data have not been corrected for the initial moisture content. However, the weight gain data provided in the tables for the various relative humidity ranges are calculated using the sample weight at the beginning of the particular RH event as the initial weight. In particular, the equilibration event wt. % change from initial wt. to 5% RH was calculated as [(wt at 5% RH−initial wt.)/initial wt.]*100; and the sorption event wt. % change from 5% RH to 95% RH was calculated as [(wt. at 95% RH−wt at 5% RH)/wt at 5% RH]*100; and the desorption event wt. % change from 95% RH to 5% RH was calculated as [(wt. at 5% RH−wt at 95% RH)/wt at 95% RH]*100. This type of analysis permits direct comparison of the experimental weight changes to the theoretical values predicted for the inter-conversion of anhydrates to hydrated forms.

[3] = Relative humidity (RH) stress of solids, XRPD; settings: for XRPD Pattern after RH stress: ambient, 21 d
Description: Relative Humidity (RH) Stress: Open vials containing solid samples were placed inside chambers containing saturated salt solutions along with a small amount of the undissolved salt. The chambers were sealed and allowed to stand at ambient temperature for several weeks. Samples were analyzed by X-ray powder diffraction (XRPD) immediately after removing the sample from the RH chamber. The RH values for these salt solutions were obtained from an ASTM standard. See a) “Preparation and Use of Relative Humidity Chambers” SSCI Method MTD 032.01 Mar. 3, 2003; and b) “Standard Practice for Maintaining Constant Relative Humidity by Means of Aqueous Solutions” ASTM Standard E 104-02 (2002).

[4] = Slurry interconversion studies in methanol; settings: room temperature; for XRPD Result after slurry: slurry time 5 days
Description: Slurry Experiments: Enough Compound I was added to a given solvent so that undissolved solids were present. The mixture was then agitated in a sealed vial at ambient temperature using either an orbital shaker or a rotating wheel. After several days the solids were isolated by vacuum filtration and allowed to dry at ambient temperature in the fume hood with the cap for the sample vial loosened.
In order to determine the relative stability of the polymorphs Compound I form A was slurried in separate experiments with roughly equal amounts of forms B, C and E in methanol at room temperature. After 12 days the solids were isolated and form A was recovered as the exclusive solid phase (Table 6). In addition to these experiments, slurries of forms B, C and D in the absence of other solid phases provided form A when slurried for 5 days in methanol at room temperature. […] It should be noted that the hydration states of these solid phases may be different for the different forms, which precludes an analysis of the true thermodynamic stability ordering through slurry experiments.

[5] = Thermal analysis (TGA/DSC), thermal stability
Description: Thermogravimetric analyses (TGA) were carried out on a TA Instruments 2950 thermogravimetric analyzer. The calibration standards were nickel and Alumel™. Samples were placed in an aluminum sample pan, inserted into the TG furnace, and accurately weighed. The samples were heated in a stream of nitrogen at a rate of 10° C./min. The temperature of the furnace was equilibrated at 25° C. prior to the analysis of the samples. The percent mass loss values provided in the tables are rounded to the nearest 0.1%.
Differential scanning calorimetry (DSC) analyses were carried out on a TA Instruments differential scanning calorimeter 2920. Accurately weighed samples were placed in either crimped pans, crimped pans with manual pinhole or uncrimped pans to allow for pressure release. Each sample was heated under nitrogen at a rate of 10° C./min to 350° C. Indium metal was used as the calibration standard. Temperatures are reported at the transition maxima and reported to one decimal place, and the integrated events are expressed in J/g and rounded to the nearest whole number.

[6] = desorption, 95% RH to about 5% RH, Tables 2A, 2B (relative to weight at start of the event)
[7] = equilibration, initial weight to about 5% RH, Tables 2A, 2B (relative to weight at start of the event)
[8] = sorption, 5% RH to about 95% RH, Tables 2A, 2B (relative to weight at start of the event)
[9] = after desorption at about 5% RH, Tables 2C-2F (values fit change relative to initial weight)
[10] = after equilibration at about 5% RH, Tables 2C-2F (values fit change relative to initial weight)
[11] = after sorption at about 95% RH, Tables 2C-2F (values fit change relative to initial weight)

SMILES: N#Cc1ccccc1Cn1c(N2CCC[C@@H](N)C2)ncc(F)c1=O [Form A, tartrate salt of 2-[2-(3-(R)-amino-piperidin-1-yl)-5-fluoro-6-oxo-6H-pyrimidin-1-ylmethyl]-benzonitrile]
solubility ([1]; organic solvent or mixture, 1,4-dioxane): < 3000 µg/mL | solubility ([1]; organic solvent or mixture, acetone): < 4000 µg/mL | solubility ([1]; organic solvent or mixture, acetonitrile): < 3000 µg/mL | solubility ([1]; organic solvent or mixture, chloroform): < 4000 µg/mL | solubility ([1]; organic solvent or mixture, dichloromethane): < 3000 µg/mL | solubility ([1]; organic solvent or mixture, diisopropyl ether): < 3000 µg/mL | solubility ([1]; organic solvent or mixture, dimethylformamide): ≥ 81000 µg/mL | solubility ([1]; organic solvent or mixture, ethanol): < 3000 µg/mL | solubility ([1]; organic solvent or mixture, ethyl acetate): < 3000 µg/mL | solubility ([1]; organic solvent or mixture, hexafluoroisopropanol): ≥ 80000 µg/mL | solubility ([1]; organic solvent or mixture, hexanes): < 3000 µg/mL | solubility ([1]; organic solvent or mixture, isopropanol): < 3000 µg/mL | solubility ([1]; organic solvent or mixture, isopropyl acetate): < 3000 µg/mL | solubility ([1]; organic solvent or mixture, methanol): ≥ 16000 µg/mL | solubility ([1]; organic solvent or mixture, methyl ethyl ketone): < 3000 µg/mL | solubility ([1]; organic solvent or mixture, nitromethane): < 3000 µg/mL | solubility ([1]; organic solvent or mixture, tetrahydrofuran): < 3000 µg/mL | solubility ([1]; organic solvent or mixture, toluene): < 3000 µg/mL | solubility ([1]; organic solvent or mixture, trifluoroethanol): ≥ 81000 µg/mL | solubility ([1]; water): ≥ 41000 µg/mL | hydrate type from moisture sorption/desorption analysis [2]: variable hydrate | solid form of post moisture sorption/desorption sample by XRPD [2]: form A | molecules of water present for every molecule of compound [2]: approximately 1 | Weight Change [2, 6]: −3.77% | Weight Change [2, 7]: −1.44% | initial weight loss from ambient conditions to 5% RH ([2]; moisture sorption/desorption): approximately 1.4% | weight gain between 5% and 95% RH ([2]; moisture sorption/desorption): about 4.00% | Weight Change [2, 8]: 4.00% | XRPD Pattern after RH stress ([3]; 58% RH stress): Form A | XRPD Pattern after RH stress ([3]; 75% RH stress): Form A | XRPD Pattern after RH stress ([3]; 84% RH stress): Form A | phase change upon RH stress ([3]; various RH conditions, room temperature, several weeks): none of these samples had undergone a phase change | relative stability of polymorphs [4]: more stable than form B, C, D, or E | XRPD Pattern after heating ([5]; TGA to 150° C. & recovered): Form A | thermally stable up to ([5]; thermal analysis): about 200 °C

SMILES: N#Cc1ccccc1Cn1c(N2CCC[C@@H](N)C2)ncc(F)c1=O [Form B, tartrate salt of 2-[2-(3-(R)-amino-piperidin-1-yl)-5-fluoro-6-oxo-6H-pyrimidin-1-ylmethyl]-benzonitrile]
solid form of post moisture sorption/desorption sample by XRPD [2]: form C | Weight Change [2, 6]: −6.30% | Weight Change [2, 7]: −0.50% | initial weight loss from ambient conditions to 5% RH ([2]; moisture sorption/desorption): approximately 0.5% | weight gain between 5% and 95% RH ([2]; moisture sorption/desorption): 6.6% | Weight Change [2, 8]: 6.64% | XRPD Result after slurry [4]: Form A

SMILES: N#Cc1ccccc1Cn1c(N2CCC[C@@H](N)C2)ncc(F)c1=O [Form C, tartrate salt of 2-[2-(3-(R)-amino-piperidin-1-yl)-5-fluoro-6-oxo-6H-pyrimidin-1-ylmethyl]-benzonitrile]
solid form of post moisture sorption/desorption sample by XRPD [2]: form C | Weight Change [2, 9]: −0.899% | Weight Change [2, 10]: −0.873% | Weight Change [2, 11]: 4.744% | molecules of water present for every molecule of compound [2]: approximately 1.5 | initial weight loss from ambient conditions to 5% RH ([2]; moisture sorption/desorption): approximately 0.9% | weight gain between 5% and 95% RH ([2]; moisture sorption/desorption): 5.7% | XRPD Result after slurry [4]: Form A

The next lines start with results.

XRPD Result after slurry [4]: Form A
SMILES: N#Cc1ccccc1Cn1c(N2CCC[C@@H](N)C2)ncc(F)c1=O [Form D, tartrate salt of 2-[2-(3-(R)-amino-piperidin-1-yl)-5-fluoro-6-oxo-6H-pyrimidin-1-ylmethyl]-benzonitrile]

solid form of post moisture sorption/desorption sample by XRPD [2]: form C | Weight Change [2, 9]: 0.098% | Weight Change [2, 10]: −0.352% | Weight Change [2, 11]: 8.801% | initial weight loss from ambient conditions to 5% RH ([2]; moisture sorption/desorption): approximately 0.4% | weight gain between 5% and 95% RH ([2]; moisture sorption/desorption): 9.2%
SMILES: N#Cc1ccccc1Cn1c(N2CCC[C@@H](N)C2)ncc(F)c1=O [Form E, tartrate salt of 2-[2-(3-(R)-amino-piperidin-1-yl)-5-fluoro-6-oxo-6H-pyrimidin-1-ylmethyl]-benzonitrile]

Weight Change [2, 9]: 0.868% | Weight Change [2, 10]: −0.054% | Weight Change [2, 11]: 13.393% | initial weight gain from ambient conditions to 5% RH ([2]; moisture sorption/desorption): approximately 0.2% | weight gain between 5% and 95% RH ([2]; moisture sorption/desorption): 5.8% | weight gain between 5% and 95% RH ([2]; moisture sorption/desorption, listed as freeze dried Compound I): ~13.5% | XRPD Pattern after RH stress ([3]; 6% RH stress): Amorphous | XRPD Pattern after RH stress ([3]; 33% RH stress): Amorphous | XRPD Pattern after RH stress ([3]; 58% RH stress): Amorphous | XRPD Pattern after RH stress ([3]; 75% RH stress): Form B | XRPD Pattern after RH stress ([3]; 84% RH stress): Pattern F
SMILES: N#Cc1ccccc1Cn1c(N2CCC[C@@H](N)C2)ncc(F)c1=O [amorphous Form 1, tartrate salt of 2-[2-(3-(R)-amino-piperidin-1-yl)-5-fluoro-6-oxo-6H-pyrimidin-1-ylmethyl]-benzonitrile]
solid form of post moisture sorption/desorption sample by XRPD [2]: tentatively identified as containing form A

Weight Change [2, 9]: 0.433% | Weight Change [2, 10]: 0.156% | Weight Change [2, 11]: 6.013%
SMILES: N#Cc1ccccc1Cn1c(N2CCC[C@@H](N)C2)ncc(F)c1=O [amorphous Form 2, tartrate salt of 2-[2-(3-(R)-amino-piperidin-1-yl)-5-fluoro-6-oxo-6H-pyrimidin-1-ylmethyl]-benzonitrile]
